Assay results as given in patent publication US11674172B2, “PIRNA-54265 detection kit used for early screening, diagnosis, curative efficacy monitoring and prognostic evaluation of colorectal cancer” (SUN YAT-SEN UNIVERSITY, priority 2018, dated 2023).

Tested on: colorectal cancer cell lines with stably overexpressed or knockdown piR-54265
Assay: IC50 experiments with chemotherapy drugs on colorectal cancer cell lines with overexpressed or knockdown piR-54265
Type: cell-based
Settings: for cell chemosensitivity (change of IC50): cells after knocking down piR-54265, versus control; for chemoresistance of the colorectal cancer cells (change of IC50): cells overexpressing piR-54265, versus control
Text: IC50 experiments with the first-line colorectal cancer chemotherapy drugs 5-FU and L-OHP were respectively performed on colorectal cancer cell lines with stably overexpressed or knockdown piR-54265. Subcutaneous xenograft tumors in nude mice were established using the stable cell lines mentioned above, and when a tumor volume reached 250 mm^3, treatment of intraperitoneal injection with 5-FU or L-OHP was started, and the change of the tumor volume was periodically measured.

Compound	cell chemosensitivity (change of IC50)	chemoresistance of the colorectal cancer cells (change of IC50)
N[C@@H]1CCCC[C@H]1N.O=C([O-])C(=O)[O-].[Pt+2] [L-OHP]	improved	enhanced
O=c1[nH]cc(F)c(=O)[nH]1 [5-FU]	improved	enhanced
